{
  "source": "patent US20220017863A1",
  "about": "“SIRT2-ABLATED CHIMERIC T CELLS” (H. Lee Moffitt Cancer Center and Research Institute, Inc., priority 2019, published 2022)",
  "key": {"[1]": {"system": "CD3-stimulated CD3+ splenic T cells", "assay": "Seahorse OCR of activated CD3+ splenic T cells with mitochondrial fuel pathway inhibitors", "type": "cell-based, mouse", "conditions": "for maximal respiration: activated Sirt2−/− CD3+ T cells; for maximal respiration (in response of FCCP): activated WT CD3+ T cells", "protocol": "(§1) Extracellular acidification rate (ECAR) and oxygen consumption rate (OCR) were measured using the Seahorse XF analyzer (Agilent technologies). Glycolysis Stress Test (GST), glycolytic rate assay (GRA) and mitochondrial stress test (MST) were purchased from Agilent technologies and performed according to the kit manufacturer's instructions.\n(§2) The day of the assay, 2×10^5 activated T cells were plated in Cell-Tak (Corning)-coated XF96 plates in XF media (XF RPMI Medium pH 7.4 containing 2 mM L-glutamine only for GST or supplemented with 10 mM glucose, 2 mM L-glutamine and 1 mM sodium pyruvate for GRA and MST, all from Agilent technologies) via centrifugation to ensure cell attachment. Cells were equilibrated for 1 hr in a non-CO2 incubator before starting the assay.\n(§3) To measure the contribution of glycolysis, glutaminolysis and FAO as fuels for mitochondrial metabolism, OCR and ECAR were measured under basal conditions and in response to sequential injections of vehicle, UK5099 (2 μM), BPTES (3 μM) or Etomoxir (4 μM) inhibitors and then 1 μM oligomycin, 1 μM FCCP (Carbonyl cyanide 4-trifluoromethoxyphenylhydrazone) and 0.5 μM rotenone/antimycin A."}, "[2]": {"system": "TILs from B16F10 tumor nodules", "assay": "Seahorse OCR of TILs freshly isolated from B16F10 tumor nodules with Etomoxir", "type": "cell-based, mouse", "protocol": "Lymphocytes from subcutaneous tumors were isolated by dicing the tissues followed by enzymatic digestion in PBS containing collagenase type 4 (2 mg/ml, Worthington Biochemical) and DNase I (0.25 mg/ml, Sigma-Aldrich) for 45 min with occasional shaking at 37° C. Cell suspensions were then twice filtered through 100 μm and 40 μm cell strainers (Thermo Fisher Scientific) to obtain single-cell suspension followed by a PBS wash and red blood cell lysis using RBC Lysis Buffer (Biolegend). TILs were finally isolated by density gradient centrifugation using Percoll (GE Healthcare) and were further purified using CD3c MicroBeads Kit™ (Miltenyi Biotec) according to the manufacturer's instructions. T cell purity was greater than 90%. Fresh TILs were used directly for phenotypic and metabolic analyses or were cultured in complete RPMI medium for functional assays.\nas §3"}, "[3]": {"target": "T1, Sirt2 deacetylase activity (Homo sapiens, UniProt Q8IXJ6)", "T1 construct": "endogenous in cells; host or cells: human CD3+ T cells enriched from PBMC of healthy donors", "T1 sequence (Q8IXJ6 1-389)": "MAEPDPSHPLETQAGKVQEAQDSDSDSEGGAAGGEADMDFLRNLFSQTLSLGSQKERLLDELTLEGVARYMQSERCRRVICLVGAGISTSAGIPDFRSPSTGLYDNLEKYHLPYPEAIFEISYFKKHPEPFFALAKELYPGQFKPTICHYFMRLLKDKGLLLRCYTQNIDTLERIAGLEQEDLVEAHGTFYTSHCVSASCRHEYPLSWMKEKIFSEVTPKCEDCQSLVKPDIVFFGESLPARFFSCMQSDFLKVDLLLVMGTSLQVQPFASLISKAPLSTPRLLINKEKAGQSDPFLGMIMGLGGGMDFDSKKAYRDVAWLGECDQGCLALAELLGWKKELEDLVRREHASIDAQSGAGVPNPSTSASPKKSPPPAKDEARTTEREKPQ", "assay": "Western blot of acetylated α-tubulin in human CD3+ enriched T cells", "type": "cell-based", "conditions": "48 hr, listed as TM", "protocol": "(§4) Human peripheral blood mononuclear cells (PBMC) were obtained from healthy donors by density gradient centrifugation using Ficoll-Paque™ PLUS Media (GE Healthcare). CD3^+ lymphocytes were negatively enriched using human Pan T cell isolation Kit™ (Miltenyi Biotec).\nWhole cell lysates were prepared using lysis buffer (Pierce RIPA buffer, ThermoFisher Scientific) supplemented with cOmplete™ Protease Inhibitor Cocktail and PhosSTOP Phosphatase Inhibitor (Roche Applied Science).\nCell lysates (20 ug) or IP samples were loaded onto 10% SDS-PAGE and separated by electrophoresis followed by semi-dry transfer into polyvinylidene fluoride membranes (Immun-Blot PVDF membrane, Bio-Rad) using Trans-Blot Turbo transfer system (Bio-Rad). After transfer, the membranes were blocked at room temperature with Tris-buffered saline (TBS) containing 0.05% Tween-20 (TBST) and 5% (w/v) milk for 1 h and then incubated overnight at 4° C. with a specific primary antibody (indicated below). […] After washing 3 times with TBST, bound antibodies were detected by chemiluminescence using the Pierce™ ECL Western Blotting Substrate and the Super Signal West Femto Maximum Sensitivity Substrate kits (ThermoFisher Scientific). […]"}, "human CD3+ T cells [4]": {"system": "human CD3+ T cells", "assay": "Seahorse extracellular flux analysis of CD3-stimulated human CD3+ T cells from healthy donors", "type": "cell-based", "conditions": "anti-CD3 plus inhibitor vs vehicle, 48 hr", "protocol": "as §4\nExtracellular acidification rates (ECAR) were measured using the Seahorse XF analyzer (Agilent). Glycolysis Stress Test (GST) and glycolytic rate assay (GRA) were performed according to kit manufacturer's instructions.\nas §2, with “test,” for “and MST,”, “hour” for “hr”\nFor GST, ECAR was measured under basal conditions and in response to 10 mM glucose, 1 μM oligomycin and 50 mM 2-DG successively to calculate basal glycolytic rate, glycolytic capacity (in response to oligomycin), and glycolytic reserve (glycolytic capacity−basal rate). For GRA, ECAR was measured under basal conditions and in response to 0.5 μM rotenone+0.5 μM antimycin A and 50 mM 2-DG successively to calculate basal glycolysis and compensatory glycolysis (in response to rotenone+antimycin A). Results were normalized to total protein quantified using Pierce™ BCA Protein Assay Kit (ThermoFisher Scientific).\nHuman peripheral blood mononuclear cells (PBMC) were obtained from healthy donors by density gradient centrifugation using Ficoll-Paque™ PLUS Media (GE Healthcare). CD3^+ lymphocytes were negatively enriched using human Pan T cell isolation Kit™ (Miltenyi Biotec). […].\nas §1, with “instructions. […]” for “instructions.”\nFor GST, ECAR and OCR were measured under basal conditions and in response to 10 mM glucose, 1 μM oligomycin and 50 mM 2-DG successively to calculate basal glycolytic rate, glycolytic capacity (in response to oligomycin), and glycolytic reserve (glycolytic capacity basal rate).\nFor GRA, ECAR and OCR were measured under basal conditions and in response to 0.5 μM roteone/antimycin A and 50 mM 2-DG successively to calculate basal glycolysis and compensatory glycolysis (in response to rotenone/antimycin A)."}, "human CD3+ T cells [5]": {"system": "human CD3+ T cells", "assay": "IFN-γ ELISPOT on human CD3+ T cells from healthy donors", "type": "cell-based", "conditions": "inhibitor vs vehicle, 48 hr, listed as TM"}, "Pmel T cells": {"system": "Pmel T cells", "assay": "IFN-γ ELISPOT on gp100-stimulated Pmel T cells", "type": "cell-based, mouse", "conditions": "gp100-stimulated Sirt2KO (Sirt2−/−) Pmel T cells", "protocol": "Spleens and/or Lymph nodes (LN) were collected from WT, Sirt2KO, Pmel/WT, Pmel/Sirt2KO mice and processed into single-cell suspensions. CD3^+, CD4^+ and CD8^+ T cells were negatively enriched using Mouse Pan T cell, CD4^+ T cell and CD8^+ T cell isolation Kits™ respectively according to the manufacturers' instructions. The purity of the isolated cells was confirmed by flow cytometry (>95%). Purified T cells were cultured in completed RPMI 1640 medium (ThermoFisher Scientific) supplemented with 10% (vol/vol) Fetal bovine serum (FBS, Biowest) and 1% (vol/vol) penicillin/streptomycin (P/S, Thomas Scientific Inc). […]\nThe number of IFN-γ producing cells was evaluated in an ELISPOT assay. […] After washing steps and biotinylated anti-IFN-γ antibody (R4-6A2, ThermoFisher Scientific)+Streptavidin-HRP (BD Bioscience) labeling, spots were detected using AEC Substrate Kit (BD Biosciences) and counted using an AID ELISPOT Reader System (Autoimmun Diagnostika GmbH). […]\nThe number of IFN-γ producing cells was evaluated in an ELISPOT assay. […] After washing steps and successive biotinylated anti-IFN-γ antibody (R4-6A2, Mabtech, Inc.) and Streptavidin-HRP (BD Bioscience) labeling, spots were detected using AEC Substrate Kit (BD Biosciences) and counted using an AID ELISPOT Reader System (Autoimmun Diagnostika GmbH)."}},
  "note": "“Also recorded” adds a separate entry of the source.",
  "data": [
    {"smiles": "O=C(Cc1ccccc1)Nc1nnc(CCSCCc2nnc(NC(=O)Cc3ccccc3)s2)s1", "note": "[BPTES]", "values": [
      {"measurement": "maximal respiration", "setting": "[1]", "value": "insensitive"},
      {"measurement": "maximal respiration (in response of FCCP)", "setting": "[1]", "value": "significantly suppressed"}
    ]},
    {"smiles": "CCOC(=O)[C@@]1(CCCCCCOc2ccc(Cl)cc2)CO1", "note": "[Etomoxir]", "values": [
      {"measurement": "maximal respiration", "setting": "[1]", "value": "insensitive"},
      {"measurement": "maximal respiration (in response of FCCP)", "setting": "[1]", "value": "significantly suppressed"},
      {"measurement": "maximal respiration", "setting": "[2]; Sirt2−/− TILs", "value": "remained resistant"},
      {"measurement": "maximal respiration", "setting": "[2]; WT TILs", "value": "decreases"}
    ]},
    {"smiles": "CCCCCCCCCCCCCC(=S)NCCCC[C@H](NC(=O)OCc1ccccc1)C(=O)Nc1ccccc1", "note": "[Thiomyristoyl]", "values": [
      {"measurement": "capacity to block Sirt2 deacetylase activity, monitored by acetylated α-tubulin levels", "setting": "[3]", "value": "confirmed; also recorded: validated"},
      {"measurement": "OxPhos", "setting": "human CD3+ T cells [4]", "value": "increased"},
      {"measurement": "aerobic glycolysis (ECAR/PER)", "setting": "human CD3+ T cells [4]; listed as TM", "value": "increased; also recorded: augments"},
      {"measurement": "IFN-γ production (effector function)", "setting": "human CD3+ T cells [5]", "value": "increased; also recorded: augments"}
    ]},
    {"smiles": "N#C/C(=C\\c1cn(-c2ccccc2)c2ccccc12)C(=O)O", "note": "[UK5099]", "values": [
      {"measurement": "maximal respiration", "setting": "[1]", "value": "insensitive"},
      {"measurement": "maximal respiration (in response of FCCP)", "setting": "[1]", "value": "significantly suppressed"}
    ]},
    {"smiles": "CC[C@H]1/C=C/C=C/C[C@@H](C)[C@H](O)[C@@](C)(O)C(=O)[C@@H](C)[C@H](O)[C@@H](C)C(=O)[C@@H](C)[C@H](O)[C@@H](C)/C=C/C(=O)O[C@@H]2[C@H](C)[C@H](CC1)O[C@]1(CC[C@H](C)[C@H](C[C@@H](C)O)O1)[C@H]2C", "note": "[oligomycin]", "values": [
      {"measurement": "IFN-γ release", "setting": "Pmel T cells", "value": "suppressed"}
    ]}
  ]
}
